The target of the assay is T1, JAK3 (Homo sapiens, UniProt P52333).
T1 construct: The Ramos B-cell line was acquired from ATCC (ATCC Catalog No. CRL-1596); host or cells: Ramos B-cell line (human)
T1 sequence (P52333 1-1124): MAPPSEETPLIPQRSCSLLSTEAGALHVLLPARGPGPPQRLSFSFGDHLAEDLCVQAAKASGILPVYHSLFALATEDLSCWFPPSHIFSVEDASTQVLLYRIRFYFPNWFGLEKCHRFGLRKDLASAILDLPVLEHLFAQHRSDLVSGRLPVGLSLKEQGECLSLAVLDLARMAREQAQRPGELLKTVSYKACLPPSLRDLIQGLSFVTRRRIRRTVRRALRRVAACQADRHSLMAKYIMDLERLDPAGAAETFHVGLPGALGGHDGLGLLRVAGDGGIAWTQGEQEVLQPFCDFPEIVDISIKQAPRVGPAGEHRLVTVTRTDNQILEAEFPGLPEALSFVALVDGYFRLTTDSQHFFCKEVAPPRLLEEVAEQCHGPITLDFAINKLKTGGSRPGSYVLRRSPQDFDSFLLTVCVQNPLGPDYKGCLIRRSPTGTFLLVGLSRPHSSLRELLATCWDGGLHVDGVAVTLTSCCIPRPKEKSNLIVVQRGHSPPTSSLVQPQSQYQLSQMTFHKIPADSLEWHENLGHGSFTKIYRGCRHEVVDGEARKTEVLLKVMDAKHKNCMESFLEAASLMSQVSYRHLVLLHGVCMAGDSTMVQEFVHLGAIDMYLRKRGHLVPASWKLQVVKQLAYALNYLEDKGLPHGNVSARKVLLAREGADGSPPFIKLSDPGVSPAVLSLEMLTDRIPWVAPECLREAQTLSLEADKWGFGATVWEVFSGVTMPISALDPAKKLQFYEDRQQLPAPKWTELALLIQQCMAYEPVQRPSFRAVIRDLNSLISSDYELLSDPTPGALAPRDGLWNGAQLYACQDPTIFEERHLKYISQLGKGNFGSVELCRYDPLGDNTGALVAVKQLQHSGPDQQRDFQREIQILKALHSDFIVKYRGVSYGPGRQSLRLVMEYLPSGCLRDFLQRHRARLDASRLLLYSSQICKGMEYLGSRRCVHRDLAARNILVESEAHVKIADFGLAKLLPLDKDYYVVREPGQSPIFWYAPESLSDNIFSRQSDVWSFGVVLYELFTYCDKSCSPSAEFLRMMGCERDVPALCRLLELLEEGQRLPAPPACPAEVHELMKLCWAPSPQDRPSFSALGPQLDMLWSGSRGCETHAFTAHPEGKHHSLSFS
As to the kind of experiment: Assay for CD23 expression on Ramos B-cells stimulated by IL-4 (Table IV: ability to inhibit JAK3 activity). In kind it is cell-based. The conditions noted are these: tested under conditions described in Example 3 (so in the source). In a few lines: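 IL-4-induced CD23 surface expression on human Ramos B cells, detected by flow cytometry after 20–24 h stimulation (IL-4 final 50 units/mL). Compound or DMSO added 1 h beforehand at 37 °C; cells kept in RPMI with 5% serum.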

The structures appear in SMILES notation. Where a name gives a salt, the structure may show the parent alone.

As to `COCc1c(C)cc(Nc2ncc(C)c(Nc3ccc4oc(=O)[nH]c4c3)n2)cc1C` [Compound I-143, N2-(3,5-dimethyl-4-methoxymethyl)phenyl-5-methyl-N4-(2-oxo-2,3-dihydro-1,3-benzoxazol-5-yl)-2,4-pyrimidinediamine], the IC50 was < 500 nM.

Regarding `CC(NC1CC1)c1ccc(Nc2ncc(F)c(Nc3ccc4oc(=O)[nH]c4c3)n2)cc1` (stereo not shown) [Compound I-158, 5-(2-(4-(1-(cyclopropylamino)ethyl)phenylamino)-5-fluoropyrimidin-4-ylamino)benzo[d]oxazol-2(3H)-one formate salt], the IC50 is < 500 nM.

Compound `COc1cc(Nc2ncc(C)c(Nc3ccc4oc(=O)n(COP(=O)(O)O)c4c3)n2)cc(C)c1C` [Compound I-115, Disodium (5-(2-(3-methoxy-4,5-dimethylphenylamino)-5-methylpyrimidin-4-ylamino)-2-oxobenzo[d]oxazol-3(2H)-yl)methyl phosphate] came in with an IC50 of 500 to 5000 nM.

For the compound `CCOc1cc(Nc2ncc(Cl)c(Nc3ccc4oc(=O)[nH]c4c3)n2)cc(C)c1C` [Compound I-104, 5-(5-chloro-2-(3-ethoxy-4,5-dimethylphenylamino)pyrimidin-4-ylamino)benzo[d]oxazol-2(3H)-one ditrifluoroacetate salt], the IC50 is < 500 nM.

Take `Cc1cc(Nc2nc(Nc3cccc(S(N)(=O)=O)c3)ncc2F)cc2[nH]c(=O)oc12` [Compound I-171, 3-(5-fluoro-4-(7-methyl-2-oxo-2,3-dihydrobenzo[d]oxazol-5-ylamino)pyrimidin-2-ylamino)benzenesulfonamide trifluoroacetate salt]: the IC50 is < 500 nM.

Take `O=c1[nH]c2cc(Nc3nc(Nc4cc(F)cc(N5CCOCC5)c4)ncc3F)ccc2o1` [Compound I-169, 5-(2-(3-fluoro-5-morpholinophenylamino)-5-fluoropyrimidin-4-ylamino)benzo[d]oxazol-2(3H)-one ditrifluoroacetate salt]: the IC50 was < 500 nM.

`COc1cc(Nc2ncc(Cl)c(Nc3ccc4oc(=O)[nH]c4c3)n2)cc(C(F)(F)F)c1` [Compound I-12, 5-(5-chloro-2-(3-methoxy-5-(trifluoromethyl)phenylamino)pyrimidin-4-ylamino)benzo[d]oxazol-2(3H)-one]: the IC50 was < 500 nM.

With `COc1c(C)ccc(Nc2ncc(C)c(Nc3ccc4oc(=O)[nH]c4c3)n2)c1F` [Compound I-29, 5-[2-(2-Fluoro-3-methoxy-4-methyl-phenylamino)-5-methyl-pyrimidin-4-ylamino]-3H-benzooxazol-2-one trifluoroacetate salt], the IC50 was < 500 nM.

`Cc1cnc(Nc2cc(C)c(C)c(C)c2)nc1Nc1cc(CN2CCNCC2)c2oc(=O)[nH]c2c1` [Compound I-95, 5-(2-(3,4,5-trimethylphenylamino)-5-methylpyrimidin-4-ylamino)-7-((piperazin-1-yl)methyl)benzo[d]oxazol-2(3H)-one ditrifluoroacetate salt] returned an IC50 of 5000 to 10000 nM.

In the case of `Cc1cnc(Nc2cc(C)c(CO)c(C)c2)nc1Nc1ccc2oc(=O)[nH]c2c1` [Compound I-142, N2-(3,5-dimethyl-4-hydroxymethyl)phenyl-5-methyl-N4-(2-oxo-2,3-dihydro-1,3-benzoxazol-5-yl)-2,4-pyrimidinediamine], the IC50 was < 500 nM.

With `CC(C)NC(=O)c1ccc(Nc2ncc(F)c(Nc3ccc4oc(=O)[nH]c4c3)n2)cc1` [Compound I-163, 4-(5-fluoro-4-(2-oxo-2,3-dihydrobenzo[d]oxazol-5-ylamino)pyrimidin-2-ylamino)-N-isopropylbenzamide formate salt], the IC50 was < 500 nM.

In the case of `COC(=O)c1cnc(Nc2ccc(F)c(OC)c2F)nc1Nc1ccc2oc(=O)[nH]c2c1` [Compound I-48, 2-(2,4-Difluoro-3-methoxy-phenylamino)-4-(2-oxo-2,3-dihydro-benzooxazol-5-ylamino)-pyrimidine-5-carboxylic acid methyl ester trifluoroacetate salt], the IC50 was > 10000 nM.

As to `COc1cccc(Nc2ncc(Br)c(Nc3ccc4oc(=O)[nH]c4c3)n2)c1F` [Compound I-22, 5-(5-bromo-2-(2-fluoro-3-methoxyphenylamino)pyrimidin-4-ylamino)benzo[d]oxazol-2(3H)-one trifluoroacetate salt], the IC50 was < 500 nM.

`Cc1ccc(Nc2ncc(C)c(Nc3ccc4oc(=O)[nH]c4c3)n2)nc1C` [II-21, N2-(5,6-dimethylpyridin-2-yl)-5-methyl-N4-(2-oxo-2,3-dihydro-1,3-benzoxazol-5-yl)-2,4-pyrimidinediamine] displayed an IC50 of 500 to 5000 nM.

`O=C(Nc1ccccc1)c1ccc(Nc2ncc(F)c(Nc3ccc4oc(=O)[nH]c4c3)n2)cc1C(F)(F)F` [Compound I-166, 4-(5-fluoro-4-(2-oxo-2,3-dihydrobenzo[d]oxazol-5-ylamino)pyrimidin-2-ylamino)-N-phenyl-2-(trifluoromethyl)benzamide formate salt]: the IC50 was < 500 nM.

Regarding `CN1CCN(c2cc(F)cc(Nc3ncc(F)c(Nc4ccc5oc(=O)[nH]c5c4)n3)c2)CC1` [Compound I-170, 5-(2-(3-fluoro-5-(4-methylpiperazin-1-yl)phenylamino)-5-fluoropyrimidin-4-ylamino)benzo[d]oxazol-2(3H)-one ditrifluoroacetate salt], the IC50 was < 500 nM.

Take `COc1cccc(Nc2ncc(Cl)c(Nc3ccc4oc(=O)[nH]c4c3)n2)c1F` [Compound I-21, 5-(5-chloro-2-(2-fluoro-3-methoxyphenylamino)pyrimidin-4-ylamino)benzo[d]oxazol-2(3H)-one trifluoroacetate salt]: the IC50 was < 500 nM.

`Cc1cc(C)cc(Nc2ncc(F)c(Nc3cc(F)c4oc(=O)[nH]c4c3)n2)c1` [Compound I-187, 5-(2-(3,5-dimethylphenylamino)-5-fluoropyrimidin-4-ylamino)-7-fluorobenzo[d]oxazol-2(3H)-one trifluoroacetate salt]: the IC50 is < 500 nM.

Regarding `Cc1cnc(Nc2ccc(C#N)c(C)n2)nc1Nc1ccc2oc(=O)[nH]c2c1` [II-16, N2-(5-cyano-6-methylpyridin-2-yl)-5-methyl-N4-(2-oxo-2,3-dihydro-1,3-benzoxazol-5-yl)-2,4-pyrimidinediamine], the IC50 was > 10000 nM.

With `COc1c(F)ccc(Nc2ncc(F)c(Nc3cc(C)c4oc(=O)[nH]c4c3)n2)c1F` [Compound I-192, 5-(2-(2,4-difluoro-3-methoxyphenylamino)-5-fluoropyrimidin-4-ylamino)-7-methylbenzo[d]oxazol-2(3H)-one trifluoroacetate salt], the IC50 fell in the range of 500 to 5000 nM.

As for `CCOC(=O)c1c(C)cc(Nc2ncc(C)c(Nc3ccc4oc(=O)[nH]c4c3)n2)cc1OC` [Compound I-128, ethyl 4-(4-(2,3-dihydro-2-oxobenzo[d]oxazol-5-ylamino)-5-methylpyrimidin-2-ylamino)-2-methoxy-6-methylbenzoate], the IC50 was < 500 nM.

`CCCCc1ccc(Nc2ncc(C)c(Nc3ccc4oc(=O)[nH]c4c3)n2)cc1C` [Compound I-148, N2-(4-n-butyl-3-methyl)phenyl-5-methyl-N4-(2-oxo-2,3-dihydro-1,3-benzoxazol-5-yl)-2,4-pyrimidinediamine] gave an IC50 of 5000 to 10000 nM.

These data come from patent US11174251B2, “Compositions and methods for inhibition of the JAK pathway” (Rigel Pharmaceuticals, Inc., priority 2010, dated 2021).
